pIC50: −log10 of the molar value.
tested on: not given; assay: not given; settings: not given

SMILES	melting point
Cc1nc2c(N[C@H]3CCOc4cc(F)cc(F)c43)cc(C(=O)N(C)C)cn2c1CO (single isomer, unassigned) [Example 3-3]	186 °C

molecular target: T1, porcine gastric H^+/K^+-ATPase (Sus scrofa, UniProt P19156); assay: Ion-tight porcine gastric H+/K+-ATPase inhibition; format: biochemical; settings: ion-tight gastric vesicles, 150 mM KCl, 15 μM valinomycin, pH 7.4, 37° C., 30 minutes; read-out: IC50 of the inhibitory activity
T1 construct: prepared from mucous membrane in fresh porcine stomachs by homogenization; from tissue; host or cells: gastric vesicles from mucous membrane of fresh porcine stomachs
Method: The porcine gastric vesicles for Porcine gastric H^+/K^+-ATPase inhibition assays were prepared from mucous membrane in fresh porcine stomachs by homogenization with a tight-fitted polytetrafluoroethylene (Teflone®) homogenizer in 0.25 M sucrose at 4° C. The crude pellet was removed with centrifugation at 20,000 g for 30 min. Then supernatant was centrifuged at 100,000 g for 30 min. The resulting pellet was re-suspended in 0.25 M sucrose, and then subjected to density gradient centrifugation at 132,000 g for 90 min. The gastric vesicles were collected from interface on 0.25 M sucrose layer containing 7% FicollTM PM400(Amersham Biosciences). This procedure was performed in a cold room.
Ion-tight porcine gastric H^+/K^+-ATPase inhibition was measured according to the modified method described in Biochemical Pharmacology, 1988, 37, 2231-2236.
The isolated vesicles were kept in deep-freezer until use. For enzyme assay, vesicles were diluted with 3 mM MgSO4 containing 5 mM Tris (pH 7.4 at 37° C.).
Enzyme reaction was performed incubating 150 mM KCl, 3 mM Na2ATP, 3 mM MgSO4, 15 μM valinomycin and 3.0 μg of vesicles for 30 minutes at 37° C. in a final 60 μl of reaction mixture (5mM Tris, pH 7.4) with or without the test compound. Enzyme reaction was stopped by adding 10% SDS. Released inorganic phosphate from ATP was detected by incubating with mixture of 1 part of 35 mM ammonium molybdate tetrahydrate in 15 mM Zinc acetate hydrate and 4 parts of 10% ascorbic acid (pH 5.0), resulting in phosphomolybdate, which has optical density at 750 nm.

T1 sequence (P19156 2-1034 limits assumed): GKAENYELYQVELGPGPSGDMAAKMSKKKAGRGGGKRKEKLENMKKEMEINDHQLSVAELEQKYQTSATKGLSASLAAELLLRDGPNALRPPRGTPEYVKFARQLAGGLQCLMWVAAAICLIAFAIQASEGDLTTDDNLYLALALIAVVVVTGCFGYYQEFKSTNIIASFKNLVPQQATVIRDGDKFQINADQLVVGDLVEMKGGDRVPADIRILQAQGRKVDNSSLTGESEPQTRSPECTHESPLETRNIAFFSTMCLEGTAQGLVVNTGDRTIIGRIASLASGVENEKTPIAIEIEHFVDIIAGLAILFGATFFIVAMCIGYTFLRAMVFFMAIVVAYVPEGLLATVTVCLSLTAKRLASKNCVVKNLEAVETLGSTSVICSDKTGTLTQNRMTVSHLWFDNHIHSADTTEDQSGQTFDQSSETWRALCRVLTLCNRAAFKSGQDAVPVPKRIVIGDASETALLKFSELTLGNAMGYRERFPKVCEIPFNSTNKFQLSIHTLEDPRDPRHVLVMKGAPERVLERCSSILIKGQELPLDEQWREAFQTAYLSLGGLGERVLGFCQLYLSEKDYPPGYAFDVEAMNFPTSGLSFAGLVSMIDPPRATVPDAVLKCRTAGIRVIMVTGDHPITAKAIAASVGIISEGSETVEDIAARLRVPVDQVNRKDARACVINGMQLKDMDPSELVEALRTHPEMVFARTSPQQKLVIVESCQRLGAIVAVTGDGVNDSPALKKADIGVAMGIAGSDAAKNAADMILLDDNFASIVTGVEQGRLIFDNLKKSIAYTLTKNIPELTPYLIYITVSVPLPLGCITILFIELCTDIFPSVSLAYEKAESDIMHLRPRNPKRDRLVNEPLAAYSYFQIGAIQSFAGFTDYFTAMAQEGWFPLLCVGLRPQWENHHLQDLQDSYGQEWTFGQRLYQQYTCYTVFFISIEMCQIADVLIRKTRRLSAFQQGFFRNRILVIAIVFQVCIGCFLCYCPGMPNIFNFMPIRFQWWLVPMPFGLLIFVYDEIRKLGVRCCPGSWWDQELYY
T1 sequence (P18434 whole entry partner): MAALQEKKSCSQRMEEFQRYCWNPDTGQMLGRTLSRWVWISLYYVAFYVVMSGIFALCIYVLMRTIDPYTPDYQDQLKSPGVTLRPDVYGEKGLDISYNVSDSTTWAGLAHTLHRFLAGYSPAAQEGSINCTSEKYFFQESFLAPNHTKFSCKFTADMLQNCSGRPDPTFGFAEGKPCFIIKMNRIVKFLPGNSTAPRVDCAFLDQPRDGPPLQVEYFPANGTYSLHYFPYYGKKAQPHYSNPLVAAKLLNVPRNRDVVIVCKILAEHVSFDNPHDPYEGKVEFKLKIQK

SMILES	pIC50
Cc1nc2c(NC3CCOc4cc(F)cc(F)c43)cc(C(=O)N3CCOCC3)cn2c1CO (single isomer, unassigned; (+)) [Example 8-2, (+)-[8-[(5,7-Difluoro-3,4-dihydro-2H-chromen-4-yl)amino]-2-methyl-6-(morpholin-4-ylcarbonyl)imidazo[1,2-a]pyridin-3-yl]methanol]	7.40
Cc1nc2c(NC3CCOc4ccccc43)cc(C(=O)N3CCOCC3)cn2c1CO (racemic) [Example 7-1, [8-(3,4-Dihydro-2H-chromen-4-ylamino)_-2-methyl-6-(morpholin-4-ylcarbonyl)imidazo[1,2-a]pyridin-3-yl]methanol]	6.85
Cc1nc2c(NC3CCOc4cccc(F)c43)cc(C(=O)N(C)C)cn2c1CO (single isomer, unassigned; (+)) [Example 4-3, (+)-8-[(5-Fluoro-3,4-dihydro-2H-chromen-4yl)-amino]-3-(hydroxymethyl)-N,N,2-trimethylimidazo [1,2-a]pyridine-6-carboxamide]	7.52
Cc1nc2c(NC3CCOc4ccccc43)cc(C(=O)N3CCOCC3)cn2c1CO (single isomer, unassigned; (-)) [Example 7-2, (−)-[f8-(3,4-Dihydro-2H-chromen-4-ylamino)-2-methyl-6-(morpholin-4-ylcarbonyl)imidazo[1,2-a]pyridin-3-yl]methanol]	7.02
Cc1nc2c(NC3CCOc4cc(F)cc(F)c43)cc(C(=O)N3CCOCC3)cn2c1CO (racemic) [Example 8-1]	7.26
Cc1nc2c(NC3CCOc4ccccc43)cc(C(=O)N(C)C)cn2c1CO (single isomer, unassigned; (+)) [Example 2-2, (+)-8-(3,4-Dihydro-2H-chromen-4-ylamino)-3-(hydroxymethyl)-N,N,2-trimethylimidazo[1,2-a]pyridine-6-car boxamide]	7.21
Cc1nc2c(NC3CCOc4cccc(F)c43)cc(C(=O)N(C)C)cn2c1CO (single isomer, unassigned; (-)) [Example 4-2, (−)-8-[(5-Fluoro-3,4-dihydro-2H-chromen-4-yl)amino]-3-(hydroxymethyl)-N,N,2-trimethylimidazo [1,2a]pyridine-6-carboxamide]	7.54
Cc1nc2c(NC3CCOc4cccc(F)c43)cc(C(=O)N3CCOCC3)cn2c1CO (single isomer, unassigned; (+)) [Example 9-2]	7.14
Cc1nc2c(NC3CCOc4cc(F)cc(F)c43)cc(C(=O)N(C)C)cn2c1CO (single isomer, unassigned) [Example 3-2]	7.43
Cc1cccc2c1C(Nc1cc(C(=O)N3CCOCC3)cn3c(CO)c(C)nc13)CCO2 (single isomer, unassigned; (-)) [Example 6-2]	7.37
Cc1cccc2c1C(Nc1cc(C(=O)N(C)C)cn3c(CO)c(C)nc13)CCO2 (single isomer, unassigned) [Example 1-3]	7.05
Cc1nc2c(NC3CCOc4ccccc43)cc(C(=O)N(C)C)cn2c1CO (racemic) [Example 2-1, 8-(3,4-Dihydro-2H-chromen-4-ylamino)-3-(hydroxymethyl)-N,N,2-trimethylimidazo[1,2a]pyridine-6-carboxamide]	7.12
Cc1nc2c(NC3CCOc4cc(F)cc(F)c43)cc(C(=O)N3CCOCC3)cn2c1CO (single isomer, unassigned; (-)) [Example 8-3, (−)-[8-[5,7-Difluoro-3,4-dihydro-2H-chromen-4-yl)amino]-2-methyl-6-(morpholin-4-ylcarbonyl)imidazo[1,2-a]pyridin-3-ylmethanol]	7.28
Cc1cccc2c1C(Nc1cc(C(=O)N3CCOCC3)cn3c(CO)c(C)nc13)CCO2 (single isomer, unassigned; (+)) [Example 6-3, (+)-[2-Methyl-8-[(5-methyl-3,4-dihydro-2H-chromen-4-yl)amino]-6-(morpholin-4-ylcarbonyl)imidazo[1,2-a]pyridin-3-yl]methanol]	7.21
Cc1nc2c(NC3CCOc4cc(F)cc(F)c43)cc(C(=O)N(C)C)cn2c1CO (single isomer, unassigned) [Example 3-3]	7.39
Cc1nc2c(NC3CCOc4ccccc43)cc(C(=O)N(C)C)cn2c1CO (single isomer, unassigned; (-)) [Example 2-3]	7.17
Cc1nc2c(NC3CCOc4cccc(F)c43)cc(C(=O)N3CCOCC3)cn2c1CO (racemic) [Example 9-1, [8-[(5-Fluoro-3,4-dihydro-2H-chromen-4-yl)amino]-2-methyl-6-(morpholin-4-ylcarbonyl)imidazo[1,2-a]pyridin-3-yl]methanol]	7.33
Cc1nc2c(NC3CCOc4ccccc43)cc(C(=O)N3CCOCC3)cn2c1CO (single isomer, unassigned; (+)) [Example 7-3, (+)-[8-(3,4-Dihydro-2H-chromen-4-ylamino)-2-methyl-6-(morpholin-4-ylcarbonyl)imidazo[1,2-a]pyridin-3-yl]methanol]	6.96
Cc1nc2c(NC3CCOc4cccc(F)c43)cc(C(=O)N3CCOCC3)cn2c1CO (single isomer, unassigned; (-)) [Example 9-3]	7.21
Cc1cccc2c1[C@@H](Nc1cc(C(=O)N(C)C)cn3c(CO)c(C)nc13)CCO2 (single isomer, unassigned) [Example 1-2]	7.08
